“Also recorded” adds a separate entry of the source. Structures can show the parent of a compound that is named as a salt. Where two headings read alike, the source gives them in different places.
Key:
[1] = tested on: wild-type HIV-1 (HIV-1LAI) in H9 cells (non-permissive); assay: microbe, parasite or virus in culture; type: cell-based; details: for viral replication (reverse transcriptase activity in supernatants): H9 cells, HIV-1LAI, up to 50 μM, 15 days
[2] = tested on: HA-tagged A3G and GFP-tagged Vif or ΔVif in 293FT cells; assay: Immunoblot of A3G and Vif levels in transfected 293FT cells; details: 16 h; for A3G levels / Vif expression: HA-A3G and GFP-Vif
[3] = tested on: wild-type HIV-1 (HIV-1LAI) in MT-4 cells (permissive); assay: Antiviral activity assay: wild-type HIV-1 in permissive MT4 cells, reverse transcriptase activity in culture supernatants; type: cell-based
[4] = tested on: polyubiquitination of A3G and Vif; assay: Ubiquitination assay in 293FT cells; type: cell-based
Procedure: Cells were incubated with or without 10 μM of IMA82, IMD55, or IMD64 for 16 h, and then with or without 10 μM of the calpain inhibitor ALLN for 4 h. The cells were washed once with PBS and lysed. Samples of 200 μg protein were immunoprecipitated by the addition of rat anti-HA (Roche) or mouse anti-GFP (Wako) antibodies (7 μg) and 50 μl protein G DYNABEADS® (Invitrogen) and rotated at RT for 2 h. The beads were washed three times with PBS containing 0.05% Tween 20 and boiled in 5×SDS sample buffer. The denatured proteins were resolved and electroblotted onto PVDF membranes. The membranes were probed with rabbit anti-ubiquitin, rabbit anti-HA, or rabbit anti-GFP antibodies, as described above.

[5] = tested on: A3G, Vif, p24, HSP90 in HIV-1LAI-infected H9 and MT4 cells; assay: Protein analysis (immunoblot) of HIV-1 infected H9 and MT4 cells; type: cell-based
Procedure: Non-permissive (H9) and permissive (MT4) cells were treated with 1% DMSO, IMA82, or 17-DMAG overnight and then infected with HIV-1LAI for 5 h. Cells were washed three times with PBS and cultured in medium for 72 h in the presence of the same concentrations of DMSO, IMA82, or 17-DMAG. Total cell lysates were prepared with M-PER buffer containing 0.5% Triton X-100, 150 mM NaCl, 5 mM EDTA, and protease inhibitor cocktail. Protein concentrations were determined with the DC protein assay kit (Bio-Rad). Immunoblotting was performed as described above.

[6] = tested on: Vif-A3G-HSP90-Cul5-CBF-β E3 ligase complex; assay: Immunoprecipitation of IMA82-interacting proteins / E3 ligase complex; type: cell-based; details: 293FT cells transfected with FLAG-HSP90 and HA-A3G, 16 h
Procedure: Cells were washed twice with PBS and lysed in IP lysis buffer (Thermo) or in a buffer composed of 50 mM Tris-HCl (pH 7.2), 150 mM NaCl, 1% NP-40, 10% glycerol, and protease inhibitor cocktail. Cell lysates ([…]) were incubated with 5 μl of rat anti-HA (Roche), rabbit anti-GFP (Cell Signaling), mouse anti-Hsp90 (Millipore), or rabbit anti-Cul5 (Sigma) plus 30 μl of protein A or G DYNABEADS® (Invitrogen) and rotated at RT for 2 h. The beads were washed three times with PBS containing 0.05% Tween 20. Each lysate was immunoprecipitated in triplicate and the beads were combined. Immune complexes were eluted by boiling in 5×SDS sample buffer. The proteins were separated by SDS-PAGE and analyzed by immunoblotting with antibodies to HA (A3G), GFP (Vif), Hsp90, Cul5, and CBF-β, as described above.

HSP90 = assay: ViTAP (Vif inhibitor Target Affinity Purification): streptavidin affinity purification of compound-bound proteins; type: binding; details: transfected 293FT cells, streptavidin affinity purification
Zika virus = assay: Zika viral replication inhibition; type: cell-based; details: FIG. 20
[7] = Human immunodeficiency virus 1, H9, read-out: Antiviral activity (IC50 μM) H9 cells, Table 1, wild-type HIV-1, non-permissive H9 cells
[8] = Human immunodeficiency virus 1, H9, read-out: Antiviral activity (IC50 μM) H9 cells, Table 3, wild-type HIV-1, non-permissive H9 cells
[9] = Human immunodeficiency virus 1, H9, read-out: IC50, anti-HIV-1 activity, non-permissive H9 cells
[10] = Human immunodeficiency virus 1, MT4, Table 1, wild-type HIV-1, permissive MT4 cells, read-out: Antiviral activity (IC50 μM) MT4 cells
[11] = Human immunodeficiency virus 1, MT4, Table 3, wild-type HIV-1, permissive MT4 cells, read-out: Antiviral activity (IC50 μM) MT4 cells
[12] = Human immunodeficiency virus 1, MT4, text, permissive MT4 cells, read-out: IC50, non-specific antiviral activity in permissive cells
[13] = 293FT cells expressing HA-A3G and GFP-Vif, 10 μM, ALLN
[14] = Human immunodeficiency virus 1, H9, read-out: Antiviral activity (IC50 μM) H9 Cells, Table 4, wild-type HIV-1, non-permissive H9 cells
[15] = Human immunodeficiency virus 1, H9, read-out: Antiviral activity (IC50 μM) H9 Cells, Table 7, wild-type HIV-1, non-permissive H9 cells
[16] = Human immunodeficiency virus 1, H9, read-out: Antiviral activity (IC50 μM) H9 cells, Table 5, wild-type HIV-1, non-permissive H9 cells
[17] = Human immunodeficiency virus 1, H9, read-out: Antiviral activity (IC50 μM) H9 cells, Table 8, wild-type HIV-1, non-permissive H9 cells
[18] = Human immunodeficiency virus 1, H9, read-out: Antiviral activity (IC50 μM) H9 cells, wild-type HIV-1 (HIV-1LAI), H9 cells (non-permissive), RT activity in culture supernatants, compounds 1 to 50 μM
[19] = Human immunodeficiency virus 1, H9, read-out: Antiviral activity (IC50 μM) H9 cells, Table 6, wild-type HIV-1, non-permissive H9 cells
[20] = Human immunodeficiency virus 1, MT4, Table 6, wild-type HIV-1, permissive MT4 cells, read-out: Antiviral activity (IC50 μM) MT4 cells
[21] = Human immunodeficiency virus 1, MT4, wild-type HIV-1 (HIV-1LAI), MT4 cells (permissive), RT activity in culture supernatants, compounds 1 to 50 μM, read-out: Antiviral activity (IC50 μM) MT4 cells

Structure (SMILES)	IC50 [1, 7] [µM]	IC50 [1, 8] [µM]	IC50 [1, 9] [µM]	A3G levels ([2]; 293FT cells, 50 μM)	Vif expression ([2]; 293FT cells, 50 μM)	IC50 [3, 10] [µM]	IC50 [3, 11] [µM]	melting point [°C]	IC50 [1, 18] [µM]	further results
COc1ccccc1-n1nncc1-c1ccccc1Sc1ccc([N+](=O)[O-])cc1 [Compound 1e, 1-(2-Methoxyphenyl)-5-(2-((4-nitrophenyl)thio)phenyl)-1H-1,2,3-triazole]	15	15	15	up-regulation of A3G; also recorded: restoring A3G levels	downregulation of Vif; also recorded: down-regulated Vif expression	25	25	139 to 141	–	IC50 [3, 12]: 25 µM
COc1ccccc1-c1noc(-c2ccccc2Sc2ccc([N+](=O)[O-])cc2)n1 [Compound 1c, 3-(2-Methoxyphenyl)-5-(2-((4-nitrophenyl)thio)phenyl)-1,2,4-oxadiazole]	6.8	6.8	6.8	up-regulation of A3G; also recorded: restoring A3G levels	downregulation of Vif; also recorded: down-regulated Vif expression	> 50	> 50	138	–	–
C=CCNC1=C2C[C@@H](C)C[C@H](OC)[C@H](O)[C@@H](C)/C=C(\C)[C@H](OC(N)=O)[C@@H](OC)/C=C\C=C(/C)C(=O)NC(=CC1=O)C2=O [Compound 17-AAG, 17-N-Allylamino-17-demethoxygeldanamycin, reference compound]	–	–	–	–	–	–	–	–	–	A3G ubiquitination ([4]; 293FT-A3G-ΔVif cells (lacking Vif)): ubiquitinated; A3G expression ([2]; 293FT cells co-expressing HA-A3G and Vif or ΔVif): dose-dependently decreased A3G expression; Vif expression / degradation ([2]; 293FT cells co-expressing HA-A3G and Vif): unaffected; HSP90 expression ([2]; transfected 293FT cells): no effect on HSP90 levels; A3G levels ([5]; HIV-1-infected H9 cells): dose-dependently decreased the expression of A3G; Vif levels ([5]; HIV-1-infected H9 cells): without affecting Vif expression; A3G expression ([5]; uninfected H9 cells, 16 h): decreased; HSP90-A3G interaction, FLAG-HSP90 affinity purification [6]: remained in complexes with A3G
[N-]=[N+]=Nc1ccc(C(=O)NCCOCCOCCOCCNC(=O)CCCCC2SCC3NC(=O)NC32)cc1 (stereo not shown) [IMD64, 4-Azido-N-(13-oxo-17-(2-oxohexahydro-1H-thieno[3,4-d]imidazol-4-yl)-3,6,9-trioxa-12-azaheptadecyl)benzamide]	–	–	–	–	–	–	–	–	–	viral replication (reverse transcriptase activity in supernatants) [1]: no effect on viral replication; A3G ubiquitination [4, 13]: extensively ubiquitinated; co-purification of HSP90 (90 kDa protein) with the compound (HSP90): did not associate; viral replication (reverse transcriptase activity in supernatants) ([3]; MT4 cells, HIV-1LAI, up to 50 μM, 15 days): no effect on viral replication
COC(=O)c1ccc(Sc2ccccc2-c2cn(-c3c(OC)cccc3OC)nn2)cc1 [Compound 6bx, Methyl 4-((2-(1-(2,6-dimethoxyphenyl)-1H-1,2,3-triazol-4-yl)phenyl)thio)benzoate]	–	–	0.2	–	–	–	–	–	0.2	IC50 [1, 14]: 0.2 µM; IC50 [1, 15]: 0.2 µM; IC50 [1, 16]: 0.2 µM; IC50 [1, 17]: 0.2 µM; Zika viral replication (Zika virus): Zika viral replication inhibition
COc1ccccc1-n1cc(-c2ccccc2S(=O)(=O)c2ccc(C(=O)O)cc2)nn1 (as salt: salt) [Compound 2gy, 2-Hydroxy-N,N,N-trimethylethanaminium 4-((2-(1-(2-methoxyphenyl)-1H-1,2,3-triazol-4-yl)phenyl)sulfonyl)benzoate]	–	–	–	–	–	–	–	93	–	–
COc1ccccc1-c1nnc(-c2ccccc2Sc2ccc([N+](=O)[O-])cc2)o1 [Compound 1b, 2-(2-Methoxyphenyl)-5-(2-((4-nitrophenyl)thio)phenyl)-1,3,4-oxadiazole]	6.8	6.8	6.8	up-regulation of A3G; also recorded: restoring A3G levels	downregulation of Vif; also recorded: down-regulated Vif expression	50	50	128 to 130	–	IC50 [1, 19]: 6.8 µM; IC50 [3, 20]: 50 µM; IC50 [3, 12]: 50 µM
COC(=O)c1ccc(Sc2ccccc2-c2cn(-c3cc(OC)ccc3OC)nn2)cc1 [Compound 5bx, Methyl 4-((2-(1-(2,5-dimethoxyphenyl)-1H-1,2,3-triazol-4-yl)phenyl)thio)benzoate]	–	–	0.2	–	–	–	–	–	0.2	IC50 ([1]; Human immunodeficiency virus 1, H9, read-out: Antiviral activity (IC50 μM) H9, Table 2, wild-type HIV-1, non-permissive H9 cells): 0.2 µM; IC50 [1, 14]: 0.2 µM; IC50 [1, 15]: 0.2 µM; IC50 [1, 16]: 0.2 µM; IC50 [1, 17]: 0.2 µM; upregulation of A3G and downregulation of Vif (immunoblots, FIG. 16) ([2]; 293FT cells, 50 μM): same mechanism as of RN-18; also recorded: same mechanism as observed for RN-18 and 1d; Zika viral replication (Zika virus): Zika viral replication inhibition; IC50 ([3]; Human immunodeficiency virus 1, MT4, Table 2, wild-type HIV-1, permissive MT4 cells, read-out: Antiviral activity (IC50 μM) MT4): > 50 µM; IC50 [3, 21]: > 50 µM
COc1ccccc1-n1cc(-c2ccccc2Sc2ccc([N+](=O)[O-])cc2)nn1 [Compound 1d, 1-(2-Methoxyphenyl)-4-(2-((4-nitrophenyl)thio)phenyl)-1H-1,2,3-triazole]	1.2	1.2	1.2	up-regulation of A3G; also recorded: restoring A3G levels	downregulation of Vif; also recorded: down-regulated Vif expression	> 50	> 50	149 to 151	1.2	IC50 [1, 19]: 1.2 µM; IC50 [3, 20]: > 50 µM; IC50 [3, 21]: > 50 µM; antiviral activity in MT4 cells (specificity) ([3]; permissive MT4 cells, up to 50 μM): no activity
COc1cc(C(=O)NCCOCCOCCOCCNC(=O)CCCCC2SCC3NC(=O)NC32)ccc1NC(=O)c1ccc(N=[N+]=[N-])cc1Sc1ccc([N+](=O)[O-])cc1 (stereo not shown) [IMD55, 4-azido-N-(2-methoxy-4-((13-oxo-17-(2-oxohexahydro-1H-thieno[3,4-d]imidazol-4-yl)-3,6,9-trioxa-12-azaheptadecyl)carbamoyl)phenyl)-2-((4-nitrophenyl)thio)benzamide]	–	–	–	–	–	–	–	–	–	viral replication (reverse transcriptase activity in supernatants) [1]: dose-dependently inhibited viral replication; A3G ubiquitination [4, 13]: not observed; Vif ubiquitination [4, 13]: ubiquitinated; co-purification of HSP90 (90 kDa protein) with the compound (HSP90): co-purified; also recorded: specifically co-purify
